Activity and IC50 data for 5 compounds are collected here from ChEMBL document CHEMBL1157902, “New diterpenoids from Caesalpinia species and their cytotoxic activity” (Bioorg Med Chem Lett, 2010).

Each structure is given as a SMILES string. pIC50: −log10 of the molar value.

Test [1] concerns HeLa. Put plainly: Cytotoxicity against human HeLa cells by MTT assay. Format: functional, cell-based. (Formazan colour is commonly taken as a measure of viable cells.)
Test [2] relates to HL-60. The experiment in a line: Cytotoxicity against human HL60 cells by MTT assay. The class given is functional, cell-based.

A word on the pIC50: it is the negative decadic logarithm of the IC50, by convention in mol/L. Low readings indicate a large IC50, high ones a small IC50. For the compound `C[C@H]1C2=CC(=O)O[C@]2(O)C[C@H]2[C@H]1[C@@H](O)[C@@H](OC(=O)c1ccccc1)[C@@]1(O)C(C)(C)CCC[C@]21C`, in test [1], the Activity entry is “Dose-dependent effect” and the pIC50 is 4.28. In test [2], the Activity entry was “Dose-dependent effect” and the negative-log IC50 (pIC50) was 4.35.
`CC(=O)O[C@@H]1[C@H]2[C@@H](C)c3ccoc3C[C@@H]2[C@@]2(C)CCCC(C)(C)[C@]2(O)[C@@H]1OC(=O)/C=C/c1ccccc1`: in test [1], the Activity entry is “Dose-dependent effect” and the negative-log IC50 (pIC50) was 4.48. In test [2], the Activity entry is “Dose-dependent effect” and the pIC50 was 4.76.
`COc1cc([C@@H]2c3cc4c(cc3[C@@H](O[C@@H]3O[C@@H]5CO[C@@H](C)O[C@H]5[C@H](O)[C@H]3O)[C@H]3COC(=O)[C@H]23)OCO4)cc(OC)c1O` [ETOPOSIDE]: the pIC50 in test [1] is 5.05.
For the compound `C[C@H]1c2ccoc2C[C@H]2[C@H]1[C@@H](OC(=O)c1ccccc1)[C@@H](OC(=O)c1ccccc1)[C@@]1(O)C(C)(C)CCC[C@]21C`, in test [1], the Activity entry is “Dose-dependent effect” and the negative-log IC50 (pIC50) was 4.47. Further, in test [2], the Activity result is “Dose-dependent effect” and the negative logarithm of the IC50 (pIC50) was 4.70.
On to `CC[C@@]1(O)C(=O)OCc2c1cc1n(c2=O)Cc2cc3ccccc3nc2-1` [CAMPTOTHECIN], for which the pIC50 in test [1] was 6.03; in test [2], 6.23.
